Assay results as given in patent US20190248739A1 (NEWLINK GENETICS CORPORATION, priority 2015, published 2019).
Where a name gives a salt, the structure may show the parent alone. Marks after values point to notes of the source that are not given here. Where a SMILES comes first, the peptide text is derived from it. [ ]: non-standard residue; d: D form. dTrp(1-Me) = Cn1cc(C[C@@H](N)C(=O)O)c2ccccc21

Tests used:
[1] = pharmacokinetic testing of indoximod prodrug salts in solid capsule formulation in rats; format: in vivo; details: rats; for increase in indoximod AUC versus equivalent molar dose of indoximod / increase in indoximod Cmax versus equivalent molar dose of indoximod: dose not given (Tables 10.2, 10.3); for % Change Cmax / % Change in AUC: vs indoximod free base, oral capsules
Description: These blends were formulated so that each capsule contained the same molar dose of each prodrug. […] The composition and uniformity of a representative sample of capsules from each batch was verified by weight and by LC-MS/MS to determine the average indoximod or prodrug content.
(§1) Rats were fasted 16 h prior to dosing to eliminate any confounding food effects, and food was returned 2 h after dosing.

[2] = pharmacokinetic testing of indoximod prodrugs in liquid formulation in mice; details: mice; for change in indoximod Cmax versus indoximod in suspension: oral, all doses tested (10, 50 and 100 mg/kg)
Description: Blood samples (0.1-0.2 mL) were collected from the femoral artery port from rats or by retro-orbital bleeding from mice and plasma was immediately collected by centrifugation and stored on dry ice to avoid prodrug hydrolysis after plasma collection. […] The pharmacokinetic parameters reflect the average of individual parameter values obtained from each individual rat (n) or one common parameter from a single pharmacokinetic curve derived from blood samples obtained from a group of mice (n).

[3] = solubility of indoximod and its salts in water, buffers and SGF; format: physicochemical; details: 25° C.; for pH of the SGF solution (in brackets): SGF solubility test; for pH of the water solution (in brackets): water solubility test
[4] = pharmacokinetic testing of indoximod salts in capsule formulation in rats; format: in vivo; details: capsules
Description: Three dose levels were investigated: 37, 185 or 500 μmol/kg.
Capsules were manually filled and the composition uniformity of a representative sample of capsules from each batch was verified by weight and by LC-MS/MS to determine the average indoximod content.
as §1

[5] = hygroscopicity and stability of indoximod and its salts; format: physicochemical; details: Table 2, in % (unit assumed)
[6] = Table 10.3, dose 37 μmol/kg, salt form free base
[7] = listed as Mesylate, methanesulfonate
[8] = Table 10.2, dose 37 μmol/kg, salt form HCl
[9] = Table 10.2, dose 185 μmol/kg, salt form H3PO4
[10] = Table 10.2, dose 185 μmol/kg, salt form HCl
[11] = Table 10.1, dose 37 μmol/kg, salt form free base
[12] = 37 μmol/kg, listed as Indoximod phosphate, phosphate
[13] = 185 μmol/kg, listed as Indoximod phosphate, phosphate
[14] = 500 μmol/kg, listed as Indoximod phosphate, phosphate

Cn1cc(C[C@@H](N)C(=O)OCC(O)CO)c2ccccc21 (stereo partly drawn) [NLG-1558, 2,3-dihydroxypropyl 1-methyl-D-tryptophanate hydrochloride]
increase in indoximod AUC versus equivalent molar dose of indoximod ([1]; capsules, hydrochloride): less significant increases
increase in indoximod Cmax versus equivalent molar dose of indoximod ([1]; capsules, hydrochloride): less significant increases

Cn1cc(C[C@@H](N)C(=O)OCC(O)CO)c2ccccc21.O=P(O)(O)O (stereo partly drawn) [NLG-1626, (2R)-1-(2,3-dihydroxypropoxy)-3-(1-methyl-1H-indol-3-yl)-1-oxopropan-2-dihydrogen phosphate]
change in indoximod AUC versus indoximod ([2]; oral, 10, 50 and 100 mg/kg, percentage of increase decreases at higher doses): dose dependent increase
change in indoximod Cmax versus indoximod in suspension [2]: significant increase

CCOC(=O)[C@@H](Cc1cn(C)c2ccccc12)NC(=O)[C@@H](N)CCC(N)=O [NLG-1672] (H-Gln-[dTrp(1-Me)]-OEt)
% Change Cmax [1, 6]: 5%
% Change in AUC [1, 6]: −16%

Cn1cc(C[C@@H](N)C(=O)O)c2ccccc21 [indoximod CH3SO3H, (R)-1-carboxy-2-(1-methyl-1H-indol-3-yl)ethan-1-aminium methanesulfonate]
pH of the SGF solution (in brackets) [3, 7]: 1.43
Solubility (25° C., mg/mL) SGF [3, 7]: 6.0 mg/mL
pH of the water solution (in brackets) [3, 7]: 1.84
Solubility (25° C., mg/mL) Water [3, 7]: 5.1 mg/mL
% Increase over indoximod Free Base (AUC) ([4]; 37 μmol/kg, methanesulfonate): 38%
% Increase over indoximod Free Base (Cmax) ([4]; 37 μmol/kg, methanesulfonate): 28%
AUC(0 −> ∞) ([4]; 37 μmol/kg, methanesulfonate): 537 ± 194 µM·h
Cmax ([4]; 37 μmol/kg, methanesulfonate): 20.3 ± 2 µM
Hygroscopicity (0-80% RH) [5, 7]: 0.12*

Cn1cc(C[C@@H](N)C(=O)OCC(O)CO)c2ccccc21 (stereo partly drawn) [NLG-1628, (2R)-1-(2,3-dihydroxypropoxy)-3-(1-methyl-1H-indol-3-yl)-1-oxopropan-2-aminium sulfate]
increase in indoximod AUC versus equivalent molar dose of indoximod ([1]; capsules): less significant increases
increase in indoximod Cmax versus equivalent molar dose of indoximod ([1]; capsules): less significant increases

CCOC(=O)[C@@H](Cc1cn(C)c2ccccc12)NC(=O)[C@@H](N)CCC(N)=O [ethyl N^α-(L-glutaminyl)-1-methyl-D-tryptophanate] (H-Gln-[dTrp(1-Me)]-OEt)
increase in indoximod AUC versus equivalent molar dose of indoximod ([1]; capsules): minor and non-statistically significant variations
increase in indoximod Cmax versus equivalent molar dose of indoximod ([1]; capsules): minor and non-statistically significant variations

Cn1cc(C[C@@H](NC(=O)CN)C(=O)O)c2ccccc21 [Cpd 05, N^α-(L-glycyl)-1-methyl-D-tryptophan] (H-Gly-[dTrp(1-Me)]-OH)
increase in indoximod AUC versus equivalent molar dose of indoximod ([1]; capsules): minor and non-statistically significant variations
increase in indoximod Cmax versus equivalent molar dose of indoximod ([1]; capsules): minor and non-statistically significant variations

O=S(=O)(O)O [Sulfate]
Hygroscopicity (0-80% RH) [5]: 3.4

CCOC(=O)[C@@H](Cc1cn(C)c2ccccc12)NC(=O)[C@@H](N)CC(C)C [NLG-1666, (S)-1-(((R)-1-ethoxy-3-(1-methyl-1H-indol-3-yl)-1-oxopropan-2-yl)amino)-4-methyl-1-oxopentan-2-aminium methanesulfonate]
increase in indoximod Cmax versus indoximod ([1]; capsules, 37-185 μmol/kg, methanesulfonate): significant increases

CCOC(=O)[C@@H](Cc1cn(C)c2ccccc12)NC(=O)C[C@H](N)C(=O)OC.Cl [NLG-1585, methyl N^4-((R)-1-ethoxy-3-(1-methyl-1H-indol-3-yl)-1-oxopropan-2-yl)-L-asparaginate hydrochloride]
increase in indoximod AUC versus equivalent molar dose of indoximod ([1]; capsules): minor and non-statistically significant variations
increase in indoximod Cmax versus equivalent molar dose of indoximod ([1]; capsules): minor and non-statistically significant variations

Cn1cc(C[C@@H](N)C(=O)OCC(O)CO)c2ccccc21 (stereo partly drawn) [NLG-1627, (2R)-1-(2,3-dihydroxypropoxy)-3-(1-methyl-1H-indol-3-yl)-1-oxopropan-2-aminium methanesulfonate]
increase in indoximod AUC versus equivalent molar dose of indoximod ([1]; capsules, methanesulfonate): decrease
increase in indoximod Cmax versus equivalent molar dose of indoximod ([1]; capsules, methanesulfonate): decrease

CSCC[C@H](N)C(=O)N[C@H](Cc1cn(C)c2ccccc12)C(=O)O [NLG-3380] (H-Met-[dTrp(1-Me)]-OH)
% Change Cmax [1, 8]: 16%
% Change in AUC [1, 8]: 24%
% Change Cmax [1, 9]: 118%
% Change in AUC [1, 9]: 66%
% Change Cmax [1, 10]: 345%
% Change in AUC [1, 10]: 181%

CCOC(=O)[C@@H](Cc1cn(C)c2ccccc12)NC(=O)[C@@H](N)CC(C)C.O=P(O)(O)O [NLG-1665]
change in indoximod Cmax versus indoximod in suspension [2]: significant increase
increase in indoximod Cmax versus indoximod ([1]; capsules, 37-185 μmol/kg): significant increases

Cn1cc(C[C@@H](NC(=O)[C@@H](N)CCCCN)C(=O)O)c2ccccc21 [NLG-1676] (H-Lys-[dTrp(1-Me)]-OH)
% Change Cmax [1, 11]: −17%
% Change in AUC [1, 11]: −13%

CS(=O)(=O)O.Cn1cc(C[C@@H](N)C(=O)O)c2ccccc21.Cn1cc(C[C@@H](N)C(=O)O)c2ccccc21 [Hemi-Mesylate]
Solubility (25° C., mg/mL) SGF [3]: 6.0 mg/mL
pH of the SGF solution (in brackets) [3]: 1.84
Solubility (25° C., mg/mL) Water [3]: 5.5 mg/mL
pH of the water solution (in brackets) [3]: 2.34

CCOC(=O)[C@@H](Cc1cn(C)c2ccccc12)NC(=O)[C@@H](N)CC(C)C.Cl [NLG-1564, ethyl N^α-(L-leucyl)-1-methyl-D-tryptophanate hydrochloride]
change in indoximod AUC compared to indoximod ([1]; capsules, 500 μmol/kg): minor increase
change in indoximod Cmax compared to indoximod ([1]; capsules, 500 μmol/kg): minor increase
increase in indoximod Cmax versus indoximod ([1]; capsules, 37-185 μmol/kg): significant increases

Cn1cc(C[C@@H](NC(=O)[C@@H](N)CCCCN)C(=O)O)c2ccccc21 [N^α-(L-lysyl)-1-methyl-D-tryptophan] (H-Lys-[dTrp(1-Me)]-OH)
increase in indoximod AUC versus equivalent molar dose of indoximod ([1]; capsules): minor and non-statistically significant variations
increase in indoximod Cmax versus equivalent molar dose of indoximod ([1]; capsules): minor and non-statistically significant variations

CCOC(=O)[C@@H](Cc1cn(C)c2ccccc12)NC(=O)[C@@H](N)CC(C)C [NLG-1691, ethyl N^α-((S)-2-(λ^4-azanyl)-4-methylpentanoyl)-1-methyl-D-tryptophanate sulfate]
increase in exposure (AUC) of indoximod versus indoximod ([1]; capsules, 37-185 μmol/kg): did not result in a significant increase
increase in indoximod Cmax versus indoximod ([1]; capsules, 37-185 μmol/kg): did not result in a significant increase

CCOC(=O)[C@@H](Cc1cn(C)c2ccccc12)NC(=O)[C@@H](N)CCSC [NLG-3272, ethyl N^α-(L-methionyl)-1-methyl-D-tryptophanate] (H-Met-[dTrp(1-Me)]-OEt)
change in indoximod AUC versus indoximod ([1]; capsules, 37-500 μmol/kg): statistically significant increase
change in indoximod Cmax versus indoximod ([1]; capsules, 37-500 μmol/kg): statistically significant increase

Cn1cc(C[C@@H](N)C(=O)O)c2ccccc21 [indoximod H2SO4, (R)-1-carboxy-2-(1-methyl-1H-indol-3-yl)ethan-1-aminium hydrogen sulfate]
% Increase over indoximod Free Base (AUC) ([4]; 37 μmol/kg, hydrogen sulfate): 42%
% Increase over indoximod Free Base (Cmax) ([4]; 37 μmol/kg, hydrogen sulfate): 42%
AUC(0 −> ∞) ([4]; 37 μmol/kg, hydrogen sulfate): 553 ± 196 µM·h
Cmax ([4]; 37 μmol/kg, hydrogen sulfate): 22.6 ± 7 µM

Cn1cc(C[C@@H](N)C(=O)O)c2ccccc21 [indoximod H3PO4, (R)-1-carboxy-2-(1-methyl-1H-indol-3-yl)ethan-1-aminium dihydrogen phosphate]
Solubility (25° C., mg/mL) SGF ([3]; phosphate): 9.83 (NA) mg/mL
Solubility (25° C., mg/mL) Water ([3]; phosphate): 8.32 (NA) mg/mL
% Increase over indoximod Free Base (AUC) [4, 12]: significant increase
% Increase over indoximod Free Base (Cmax) [4, 12]: significant increase
% Increase over indoximod Free Base (AUC) ([4]; 37 μmol/kg, phosphate): 43%
% Increase over indoximod Free Base (Cmax) ([4]; 37 μmol/kg, phosphate): 40%
AUC(0 −> ∞) ([4]; 37 μmol/kg, phosphate): 558 ± 185 µM·h
Cmax ([4]; 37 μmol/kg, phosphate): 22.3 ± 9 µM
% Increase over indoximod Free Base (AUC) [4, 13]: significant increase
% Increase over indoximod Free Base (Cmax) [4, 13]: significant increase
% Increase over indoximod Free Base (AUC) ([4]; 185 μmol/kg, phosphate): 34%
% Increase over indoximod Free Base (Cmax) ([4]; 185 μmol/kg, phosphate): 96%
AUC(0 −> ∞) ([4]; 185 μmol/kg, phosphate): 1446 ± 645 µM·h
Cmax ([4]; 185 μmol/kg, phosphate): 40.9 ± 5 µM
% Increase over indoximod Free Base (AUC) [4, 14]: non-statistically significant decrease
% Increase over indoximod Free Base (Cmax) [4, 14]: significant decrease
% Increase over indoximod Free Base (AUC) ([4]; 500 μmol/kg, phosphate): −34%
% Increase over indoximod Free Base (Cmax) ([4]; 500 μmol/kg, phosphate): −51%
AUC(0 −> ∞) ([4]; 500 μmol/kg, phosphate): 1902 ± 1288 µM·h
Cmax ([4]; 500 μmol/kg, phosphate): 37.2 ± 10 µM
Hygroscopicity (0-80% RH) ([5]; phosphate): 1.7
